Values of other authors as cited in patent US9072700B2, “Methods of using derivatives of (−)-venlafaxine” (Sunovion Pharmaceuticals Inc., priority 1998, dated 2015).

Assays:
norepinephrine uptake = settings: in vitro; Muth et al. 1991
dopamine uptake = settings: in vitro; Muth et al. 1991
[1] = Klamerus et al. 1992
serotonin uptake = settings: Howell et al. 1994
[2] = test system: norepinephrine synaptosomal uptake; settings: Howell et al. 1994

## CN(C)CC(c1ccc(O)cc1)C1(O)CCCCC1 (racemic) [O-desmethylvenlafaxine, (±)-1-[2-(dimethylamino)-1-(4-phenol)ethyl]cyclohexanol]
Norepinephrine uptake
  inhibition of norepinephrine uptake compared with racemic venlafaxine: more potent inhibitor
Dopamine uptake
  inhibition of dopamine uptake compared with racemic venlafaxine: more potent inhibitor
[1]
  half-life (t½): about 10 hours
[1]; ratio to venlafaxine half-life
  half-life relative to that of venlafaxine: approximately 2.5 times

## COc1ccc(C(CN(C)C)C2(O)CCCCC2)cc1 (single isomer, unassigned; (+)) [(+) enantiomer]
Serotonin uptake
  selectivity in inhibiting serotonin uptake, enantiomer comparison: more selective

## COc1ccc([C@H](CN(C)C)C2(O)CCCCC2)cc1 [(−) enantiomer]
[2]
  inhibition of norepinephrine synaptosomal uptake, enantiomer comparison: more potent inhibitor
